Where a name gives a salt, the structure may show the parent alone. ± gives the standard deviation of the averaged measurements.
Tests used:
Conditions in all cases: 72 h
Caco-2 [1] = experiment: drug sensitivity score (DSS) for viability; higher = more toxic; extreme values may be limits of the assay
Caco-2 [2] = experiment: cell viability relative to DMSO; higher = less toxic
Caco-2 [3] = experiment: relative viability EC50 (midpoint between 100% and the lowest measured viability); higher = less toxic
HepG2 [4] = experiment: drug sensitivity score (DSS) for viability; higher = more toxic; extreme values may be limits of the assay
Vero E6 [5] = experiment: as above
U2OS [6] = experiment: as above
HepG2 [7] = experiment: cell viability relative to DMSO; higher = less toxic
Vero E6 [8] = experiment: as above
U2OS [9] = experiment: as above
HepG2 [10] = experiment: relative viability EC50 (midpoint between 100% and the lowest measured viability); higher = less toxic
Vero E6 [11] = experiment: as above
U2OS [12] = experiment: as above
Calu-3 [13] = experiment: drug sensitivity score (DSS) for viability; higher = more toxic; extreme values may be limits of the assay
Calu-3 [14] = experiment: cell viability relative to DMSO; higher = less toxic

Row | Structure (SMILES) | drug sensitivity score (Caco-2 [1]) | cell viability (Caco-2 [2]; 1 nM) [%] | cell viability (Caco-2 [2]; 10 nM) [%] | cell viability (Caco-2 [2]; 100 nM) [%] | cell viability (Caco-2 [2]; 1000 nM) [%] | cell viability (Caco-2 [2]; 10000 nM) [%] | relative viability EC50 (Caco-2 [3]) [µM] | drug sensitivity score (HepG2 [4]) | drug sensitivity score (Vero E6 [5]) | drug sensitivity score (U2OS [6]) | cell viability (HepG2 [7]; 1 nM) [%] | cell viability (HepG2 [7]; 10 nM) [%] | cell viability (HepG2 [7]; 100 nM) [%] | cell viability (HepG2 [7]; 1000 nM) [%] | cell viability (HepG2 [7]; 10000 nM) [%] | cell viability (Vero E6 [8]; 1 nM) [%] | cell viability (Vero E6 [8]; 10 nM) [%] | cell viability (Vero E6 [8]; 100 nM) [%] | cell viability (Vero E6 [8]; 1000 nM) [%] | cell viability (Vero E6 [8]; 10000 nM) [%] | cell viability (U2OS [9]; 1 nM) [%] | cell viability (U2OS [9]; 10 nM) [%] | cell viability (U2OS [9]; 100 nM) [%] | cell viability (U2OS [9]; 1000 nM) [%] | cell viability (U2OS [9]; 10000 nM) [%] | relative viability EC50 (HepG2 [10]) [µM] | relative viability EC50 (Vero E6 [11]) [µM] | relative viability EC50 (U2OS [12]) [µM] | drug sensitivity score (Calu-3 [13]) | cell viability (Calu-3 [14]; 1 nM) [%] | cell viability (Calu-3 [14]; 10 nM) [%] | cell viability (Calu-3 [14]; 100 nM) [%] | cell viability (Calu-3 [14]; 1000 nM) [%] | cell viability (Calu-3 [14]; 10000 nM) [%]
1 | NC[C@@H]1O[C@H](O[C@@H]2[C@@H](CO)OC(O[C@@H]3[C@@H](O)[C@H](N)C[C@H](N)[C@H]3OC3O[C@H](CN)[C@@H](O)[C@H](O)[C@H]3N)[C@@H]2O)[C@H](N)[C@@H](O)[C@@H]1O (stereo partly specified) [NEOMYCIN TRISULFATE] | 0 | 96.6 | 103 | 96.3 | 91.7 | 97.3 | > 10 | – | – | – | – | – | – | – | – | – | – | – | – | – | – | – | – | – | – | – | – | – | – | – | – | – | – | –
2 | Cc1ccnc(NC(=O)C(C)c2cccc(C(=O)c3ccccc3)c2)c1 (stereo unspecified) [piketoprofen] | 0 | 96.7 | 87.3 | 91.7 | 93.5 | 91.5 | > 10 | 0.3 | 0 | 0 | 103 | 89.3 | 111 | 107 | 80.8 | 98.3 | 98.8 | 99.8 | 106 | 96.1 | 105 | 102 | 97.7 | 103 | 95.3 | > 10 | > 10 | > 10 | – | – | – | – | – | –
3 | N#Cc1c(Oc2ccc(F)c(NC(=O)Cc3cccc(C(F)(F)F)c3)c2)ccc2nc(NC(=O)C3CC3)sc12 [TAK-632] | 3.8 | 100 | 99.4 | 91.8 | 84.9 | 55.6 | – | 14.9 | 6.8 | 3.5 | 99.9 | 106 | 85.1 | 29 | 17.2 | 100 | 106 | 104 | 79 | 32.3 | 97.9 | 102 | 94.8 | 99 | 37.8 | 0.289 | 1.37 | 3.05 | 3 | 105 | 105 | 110 | 93 | 61.6
4 | O=C(O)[C@H](O)c1ccccc1 [mandelic-acid] | 0 | 91.9 | 84.2 | 104 | 94.4 | 91.6 | > 10 | 0 | 0 | 0 | 110 | 96.7 | 103 | 96.4 | 102 | 100 | 99.1 | 93.8 | 97.3 | 98.9 | 98.7 | 100 | 99.3 | 106 | 94.8 | > 10 | > 10 | > 10 | – | – | – | – | – | –
5 | Cc1c(C)c2c(c(C)c1OC(=O)CCC(=O)O)CC[C@@](C)(CCC[C@H](C)CCC[C@H](C)CCCC(C)C)O2 [D-alpha-tocopheryl-succinate] | 0 | 98.2 | 104 | 106 | 96.5 | 102 | > 10 | 0 | 0 | – | 95.4 | 109 | 95.3 | 106 | 113 | 97.8 | 101 | 97.9 | 102 | 111 | – | – | – | – | – | > 10 | > 10 | – | – | – | – | – | – | –
6 | COc1cc(N2CCC(N3CCN(C)CC3)CC2)ccc1Nc1ncnc(Nc2ccccc2S(=O)(=O)C(C)C)n1 [ASP3026] | 2.5 | 102 | 101 | 95.7 | 92.7 | 68.6 | – | 6 | 4 | 1.4 | 107 | 96.6 | 99.7 | 88.7 | 25.2 | 92.9 | 97.9 | 100 | 90.9 | 51.7 | 100 | 94.5 | 99.6 | 98.5 | 70.9 | 1.98 | – | – | – | – | – | – | – | –
7 | O=C(NNC(=O)c1ccc(CNS(=O)(=O)c2ccc(F)c(Cl)c2)cc1)c1ccccc1 [TCN201] | 0 | 109 | 108 | 99.1 | 99.8 | 103 | > 10 | 0 | 0 | 0 | 89.3 | 108 | 97 | 90.7 | 97.7 | 104 | 98.5 | 98.4 | 102 | 102 | 96.3 | 99.8 | 97.7 | 94 | 96.4 | > 10 | > 10 | > 10 | – | – | – | – | – | –
8 | CN(C)CCOc1ccc(/C(=C(/CCCl)c2ccccc2)c2ccccc2)cc1 [Toremifene citrate] | 2.6 | 109 | 98.8 | 93.7 | 96.3 | 60.4 | – | 2.8 | 0 | 0.1 | 110 | 103 | 104 | 90 | 68.8 | 99.6 | 99.3 | 99.8 | 97.6 | 91.9 | 106 | 103 | 105 | 99 | 87.8 | – | > 10 | > 10 | 3.4 | 94.1 | 100 | 88.7 | 90.4 | 57.5
9 | O=C(O)c1cc(=O)c2c(OCC(O)COc3cccc4oc(C(=O)O)cc(=O)c34)cccc2o1 [cromoglicic-acid] | 0 | 97 | 100 | 98.6 | 102 | 92.3 | > 10 | 0 | 0 | 0 | 101 | 95.3 | 104 | 105 | 101 | 100 | 101 | 101 | 96.6 | 100 | 96.4 | 99.4 | 98.4 | 103 | 96.9 | > 10 | > 10 | > 10 | – | – | – | – | – | –
10 | CN[C@H]1CN(c2ccc3c(=O)c(C(=O)O)cn(-c4nccs4)c3n2)C[C@@H]1OC [voreloxin] | 3.7 | 94.1 | 93.2 | 99.9 | 91.6 | 55.1 | – | 6.9 | 4 | 3.6 | 90.7 | 108 | 88.5 | 72.6 | 29.1 | 96.9 | 96.2 | 96.7 | 88.1 | 56.1 | 100 | 97.6 | 103 | 98 | 38.3 | 1.29 | – | 2.93 | 4.1 | 101 | 98.9 | 104 | 85.6 | 58.9
11 | COc1cc(OC)c(/C=C2/C(=O)Nc3ccccc32)c(OC)c1 [IC261] | 3.7 | 96.9 | 92.9 | 95.1 | 90.5 | 57.6 | – | 4.6 | 7.2 | 5.4 | 97.5 | 102 | 108 | 92.9 | 37.1 | 99 | 99.2 | 102 | 69.2 | 39.1 | 95 | 99.8 | 98.5 | 86 | 41.6 | 2.24 | 0.991 | 1.58 | 2.4 | 90.1 | 97 | 95.9 | 96.7 | 61.8
12 | O=C(O)C(O)C(O)C(=O)O (stereo unspecified) [tartaric-acid] | – | – | – | – | – | – | – | 0 | 0 | 0 | – | – | – | – | – | – | – | – | – | – | – | – | – | – | – | – | – | – | 0 | – | – | – | – | –
13 | CN1C(=O)N(C)C2C1N(C)C(=O)N2C (stereo unspecified) [mebicar] | 0 | 101 | 106 | 98.5 | 97.9 | 95.8 | > 10 | 0 | – | 0 | 110 | 107 | 114 | 97.9 | 92.2 | – | – | – | – | – | 104 | 104 | 99.8 | 106 | 102 | > 10 | – | > 10 | – | – | – | – | – | –
14 | CC(=O)O/N=C1\C(=O)N(Cc2cc(Cl)ccc2Cl)c2ccc(Cl)cc21 | 1 | 97.3 | 92 | 104 | 91 | 83.9 | > 10 | 0 | 0 | 0 | 97.9 | 97.7 | 104 | 108 | 86.9 | 98.3 | 105 | 97.3 | 98.7 | 97.9 | 100 | 99 | 97.7 | 96.6 | 97.3 | > 10 | > 10 | > 10 | 2.1 | 103 | 90.7 | 93.9 | 98.4 | 61.8
15 | N[C@@H](CC(=O)Nc1ccc(Oc2cc(F)c(F)cc2Br)cc1)C(=O)O | 0 | 94.8 | 88.1 | 98.6 | 87 | 99 | > 10 | 0 | 0 | 0 | 94.2 | 92.6 | 91.7 | 111 | 104 | 91 | 98.3 | 95.1 | 101 | 105 | 99 | 94.4 | 101 | 94.7 | 102 | > 10 | > 10 | > 10 | – | – | – | – | – | –
16 | O=C(O)c1c(Cl)c(Cl)c(Cl)c(Cl)c1-c1c2cc(I)c(=O)c(I)c-2oc2c(I)c(O)c(I)cc12 [rose-bengal] | 4.6 ± 0.14 | 96.1 ± 5.2 | 93.7 ± 6.9 | 98.4 ± 7.9 | 83.3 ± 0.92 | 52.2 ± 6.1 | – | 3.8 ± 0.85 | 3.7 ± 0.42 | 3.6 ± 0.42 | 98.5 ± 1.1 | 92.7 ± 7 | 102 ± 3.8 | 86.2 ± 5.3 | 61.6 ± 4.2 | 97.6 ± 4 | 99.6 | 101 ± 3 | 90.5 ± 0.42 | 57.1 ± 5.8 | 99.5 ± 3 | 101 ± 7.5 | 98.8 ± 0.28 | 92.65 ± 0.49 | 54 ± 5.6 | – | – | – | 3 ± 1.4 | 96 ± 5.7 | 96.7 ± 3.9 | 97.2 ± 4.7 | 97.8 ± 12 | 54.4 ± 0.71
17 | CCCCC1C(=O)N(c2ccccc2)N(c2ccccc2)C1=O [phenylbutazone] | – | – | – | – | – | – | – | 0 | 0 | 0 | – | – | – | – | – | – | – | – | – | – | – | – | – | – | – | – | – | – | 0 | – | – | – | – | –
